In patent US8178534B2, “cMET inhibitors” (Takeda Pharmaceutical Company Limited, priority 2008, dated 2012):

How the values were obtained:
EBC1 = assay: Inhibition of cell viability (MTS), EBC1; assay type: cell-based; details: Homo sapiens, 96 hours incubation
Protocol: (§1) Cells were maintained at 37° C. in a humidified atmosphere containing 5%-8% CO2 following the instructions of the supplier (American Type Culture Collection (Rockville, Md.)). Inhibition of cell viability was determined for a panel of tumor cell lines (MKN45, EBC1 and A549), using the soluble tetrazolium salt, MTS (Promega, Madison, Wis.). Cells were seeded at 2,000-7,500 cells/well in 96-well tissue culture plates and were allowed to attach for approximately 24 hours prior to addition of compounds or DMSO vehicle. […] Cells were treated in duplicate with test compounds. Compounds were serially diluted (1:2.5) from column 1 to 11 and column 12 contained DMSO vehicle. Compounds were diluted into cell growth medium then compound solution was added to cells. Equal amounts of DMSO were added to cells (final concentration is 0.5%). After background correction and normalization against DMSO-treated cells, EC50 values were calculated using non-linear curve-fitting of the cell viability as a function of compound concentration. The MKN45 and EBC1 cell lines contain high levels of phospho-Met and are dependent on cMET for proliferation, whereas the A549 line is used as negative control.
(§2) EC50 values may be calculated by non-linear curve fitting of the compound concentrations and fluorescence intensities to the standard EC50 equation.

MKN45 = assay: Inhibition of cell viability (MTS), MKN45; assay type: cell-based; details: Homo sapiens, 96 hours incubation
Protocol: as §1, §2

A549 = assay: Inhibition of cell viability (MTS), A549 (negative control line); assay type: cell-based; details: Homo sapiens, A549 cells (negative control), 96 hours incubation
Protocol: as §1, §2

[1] = target: T1, cMET enzyme (amino acids 1023-1360) (Homo sapiens, UniProt P08581); assay: Determination of inhibition of cMET (capillary electrophoresis, phosphorylated peptide product); assay type: biochemical; details: 1.2 nM cMET, 50 μM ATP, 2 μM FL-2 peptide, 2 hours room temperature
T1 construct: The cMET enzyme (amino acids 1023-1360) nominally at 24 μM was held at −80° C. until use; His tag (N, cleaved yes); made in house; host or cells: Sf9 cells
Protocol: The inhibitory property of a compound relative to cMET catalysis was determined by use of capillary electrophoresis with fluorescence quantification of a phosphorylated peptide product for cMET. The cMET enzyme (amino acids 1023-1360) nominally at 24 μM was held at −80° C. until use, in a buffer containing 25 mM Tris-HCl pH 8.5, 150 mM NaCl, 3 mM DTT and 10% glycerol. […] Following purification, the tag was removed and enzyme concentrated. […] To activate the enzyme fully, frozen cMET was thawed quickly and activated with the addition of assay buffer (50 mM HEPES pH 7.5, 10 mM NaCl, 10 mM MgCl2, 0.01% Brij® 35), 1.25 mM ATP, 5 mM MgCl2 and 5 mM DTT at a cMET concentration of 2.4 μM followed by a 30 minute incubation at room temperature. […] Next, cMET enzyme (1.2 nM final) was added and the system incubated at room temperature for 20 minutes. Catalysis was initiated by the addition of ATP (50 μM final). Assays were incubated at room temperature for 2 hours then quenched by the addition of EDTA. Phosphorylated peptide product was quantified by monitoring fluorescence during capillary electrophoresis with Caliper LifeSciences LabChip 3000 under the following settings: base pressure=−0.1 psi, screen pressure=−1.2 psi, downstream voltage=−500 V, upstream voltage=−2300 V, chip type=TC372. The elution buffer was identical to the assay buffer except for the absence of DTT, FL-2 and ATP and the addition of 0.1% coating reagent (Caliper). […] Peak height was quantified and used to determine enzyme velocities.
IC50 values were calculated by non-linear least squares curve fitting of the standard IC50 equation to background-corrected cMET velocity versus compound concentration.

T1 sequence (P08581 1023-1360): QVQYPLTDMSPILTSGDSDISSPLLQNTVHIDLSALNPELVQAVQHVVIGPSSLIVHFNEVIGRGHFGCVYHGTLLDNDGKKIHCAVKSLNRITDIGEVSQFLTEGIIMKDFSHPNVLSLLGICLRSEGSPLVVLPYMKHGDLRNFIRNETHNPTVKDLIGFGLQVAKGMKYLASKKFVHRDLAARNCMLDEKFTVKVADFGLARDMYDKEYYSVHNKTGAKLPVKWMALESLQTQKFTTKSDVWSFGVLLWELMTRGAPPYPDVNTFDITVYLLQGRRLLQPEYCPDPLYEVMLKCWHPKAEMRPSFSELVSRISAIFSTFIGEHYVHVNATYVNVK

Row | Structure (SMILES) | EC50 (EBC1; EBC-1, EBC1 cells) [nM] | EC50 (MKN45; MKN-45, MKN45 cells) [nM] | EC50 (A549) [nM] | IC50 [1] [nM] | EC50 (EBC1; EBC-1, 96 h, EBC1 cells) [nM] | EC50 (MKN45; MKN-45, 96 h, MKN45 cells) [nM] | EC50 (A549; A549, 96 h) [nM]
1 | N#Cc1ccc2nnc(Sc3ccc4nc(NC(=O)C5CC5)cn4n3)n2c1 [Compound 6, N-(6-(6-cyano-[1,2,4]triazolo[4,3-a]pyridin-3-ylthio)imidazo[1,2-b]pyridazin-2-yl)cyclopropanecarboxamide] | > 200 | > 630 | > 50000 | > 100 | – | – | –
2 | O=C(Nc1cn2nc(Sc3nnc4ccc(Cl)cn34)ccc2n1)C1CC1 [Compound 9, N-(6-(6-chloro-[1,2,4]triazolo[4,3-a]pyridin-3-ylthio)imidazo[1,2-b]pyridazin-2-yl)cyclopropanecarboxamide] | – | – | – | 60 to 100 | 100 to 199 | 250 to 630 | 8000 to 25000
3 | Cc1ccc2nnn(Cc3ccc4nc(NC(=O)C5CC5)cn4n3)c2c1 [Compound 12, N-(6-((6-methyl-1H-benzo[d][1,2,3]triazol-1-yl)methyl)imidazo[1,2-b]pyridazin-2-yl)cyclopropanecarboxamide] | – | – | – | > 100 | > 200 | > 630 | > 50000
4 | O=C(Nc1cn2nc(Cn3nnc4ccc(-c5cccc(F)c5)cc43)ccc2n1)C1CC1 [Compound 14] | – | – | – | 30 to 59 | 100 to 199 | 250 to 630 | 600 to 1600
5 | O=C(Nc1cn2nc(Cn3nnc4ccc(-c5ccccc5)cc43)ccc2n1)C1CC1 [Compound 15] | – | – | – | 60 to 100 | 100 to 199 | 250 to 630 | 8000 to 25000
6 | O=C(Nc1cn2nc(Cn3nnc4ccc(-c5cccnc5)cc43)ccc2n1)C1CC1 [Compound 16] | – | – | – | > 100 | > 200 | > 630 | > 50000
7 | CS(=O)(=O)c1ccc(-c2ccc3nnn(Cc4ccc5nc(NC(=O)C6CC6)cn5n4)c3c2)cc1 [Compound 17] | – | – | – | 60 to 100 | < 35 | < 100 | > 19500
8 | CCS(=O)(=O)c1cccc(-c2ccc3nnn(Cc4ccc5nc(NC(=O)C6CC6)cn5n4)c3c2)c1 [Compound 18] | – | – | – | 30 to 59 | 100 to 199 | 100 to 249 | > 19500
9 | COc1cncc(-c2ccc3nnn(Cc4ccc5nc(NC(=O)C6CC6)cn5n4)c3c2)c1 [Compound 19] | – | – | – | 60 to 100 | 100 to 199 | 250 to 630 | > 19500
10 | Cc1n[nH]c(C)c1-c1ccc2nnn(Cc3ccc4nc(NC(=O)C5CC5)cn4n3)c2c1 [Compound 20] | – | – | – | 60 to 100 | > 200 | 250 to 630 | > 50000
11 | CS(=O)(=O)c1cncc(-c2ccc3nnn(Cc4ccc5nc(NC(=O)C6CC6)cn5n4)c3c2)c1 [Compound 21] | – | – | – | > 100 | > 200 | > 630 | > 50000
12 | O=C(Nc1cn2nc(Cn3nnc4ccc(-c5cnn(C[C@H](O)CO)c5)cc43)ccc2n1)C1CC1 [Compound 22] | – | – | – | 60 to 100 | > 200 | > 630 | > 50000
13 | O=C(Nc1cn2nc(Cn3nnc4ccc(-c5cnn(C[C@@H](O)CO)c5)cc43)ccc2n1)C1CC1 [Compound 23] | – | – | – | 30 to 59 | 100 to 199 | 250 to 630 | > 50000
14 | O=C(Nc1cn2nc(Cn3nnc4ccc(-c5cnn(CCO)c5)cc43)ccc2n1)C1CC1 [Compound 24] | – | – | – | 60 to 100 | 35 to 99 | 100 to 249 | > 50000
15 | C=C(C)c1ccc2nnc(Sc3ccc4nc(NC(=O)C5CC5)cn4n3)n2c1 [Compound 25, N-(6-(6-(prop-1-en-2-yl)-[1,2,4]triazolo[4,3-a]pyridin-3-ylthio)imidazo[1,2-b]pyridazin-2-yl)cyclopropanecarboxamide] | – | – | – | < 30 | < 35 | < 100 | 8000 to 25000
16 | CC(C)c1ccc2nnc(Sc3ccc4nc(NC(=O)C5CC5)cn4n3)n2c1 [Compound 26, N-(6-(6-isopropyl-[1,2,4]triazolo[4,3-a]pyridin-3-ylthio)imidazo[1,2-b]pyridazin-2-yl)cyclopropanecarboxamide] | – | – | – | < 30 | < 35 | < 100 | > 19500
17 | O=C(NCCO)Nc1cn2nc(Sc3nnc4ccc(-c5cccc(F)c5)cn34)ccc2n1 [Compound 27, 1-(6-(6-(3-fluorophenyl)-[1,2,4]triazolo[4,3-a]pyridin-3-ylthio)imidazo[1,2-b]pyridazin-2-yl)-3-(2-hydroxyethyl)urea] | 35 to 99 | < 100 | > 50000 | < 30 | – | – | –
18 | CNC(=O)c1ccc(-c2ccc3nnc(Sc4ccc5nc(NC(=O)C6CC6)cn5n4)n3c2)cc1Cl [Compound 28, 2-chloro-4-(3-(2-(cyclopropanecarboxamido)imidazo[1,2-b]pyridazin-6-ylthio)-[1,2,4]triazolo[4,3-a]pyridin-6-yl)-N-methylbenzamide] | – | – | – | < 30 | < 35 | < 100 | > 50000
19 | COCCOCn1cc(-c2ccc3nnc(Sc4ccc5nc(NC(=O)C6CC6)cn5n4)n3c2)cn1 [Compound 29, N-(6-(6-(1-((2-methoxyethoxy)methyl)-1H-pyrazol-4-yl)-[1,2,4]triazolo[4,3-a]pyridin-3-ylthio)imidazo[1,2-b]pyridazin-2-yl)cyclopropanecarboxamide] | 35 to 99 | < 100 | > 50000 | 60 to 100 | – | – | –
20 | CN(C)C(=O)Cn1cc(-c2ccc3nnc(Sc4ccc5nc(NC(=O)C6CC6)cn5n4)n3c2)cn1 [Compound 30, N-(6-(6-(1-(2-(dimethylamino)-2-oxoethyl)-1H-pyrazol-4-yl)-[1,2,4]triazolo[4,3-a]pyridin-3-ylthio)imidazo[1,2-b]pyridazin-2-yl)cyclopropanecarboxamide] | – | – | – | 30 to 59 | > 200 | > 630 | > 19500
21 | COCCn1cc(-c2ccc3nnc(Sc4ccc5nc(NC(=O)C6CC6)cn5n4)n3c2)cn1 [Compound 31, N-(6-(6-(1-(2-methoxyethyl)-1H-pyrazol-4-yl)-[1,2,4]triazolo[4,3-a]pyridin-3-ylthio)imidazo[1,2-b]pyridazin-2-yl)cyclopropanecarboxamide] | – | – | – | 30 to 59 | < 35 | < 100 | > 50000
22 | O=C(Nc1cn2nc(Sc3nnc4ccc(-c5cnn(CCO)c5)cn34)ccc2n1)C1CC1 [Compound 32] | – | – | – | < 30 | 35 to 99 | 100 to 249 | > 50000
23 | O=C(O)c1ccc2nnc(Sc3ccc4nc(NC(=O)C5CC5)cn4n3)n2c1 [Compound 33, 3-(2-(cyclopropanecarboxamido)imidazo[1,2-b]pyridazin-6-ylthio)-[1,2,4]triazolo[4,3-a]pyridine-6-carboxylic acid] | > 200 | > 630 | > 50000 | > 100 | – | – | –
24 | O=C(NC1CC1)c1ccc2nnc(Sc3ccc4nc(NC(=O)C5CC5)cn4n3)n2c1 [Compound 34, 3-(2-(cyclopropanecarboxamido)imidazo[1,2-b]pyridazin-6-ylthio)-N-cyclopropyl-[1,2,4]triazolo[4,3-a]pyridine-6-carboxamide] | – | – | – | 60 to 100 | > 200 | > 630 | > 50000
25 | CC(C)CNC(=O)c1ccc2nnc(Sc3ccc4nc(NC(=O)C5CC5)cn4n3)n2c1 [Compound 35, 3-(2-(cyclopropanecarboxamido)imidazo[1,2-b]pyridazin-6-ylthio)-N-isobutyl-[1,2,4]triazolo[4,3-a]pyridine-6-carboxamide] | – | – | – | > 100 | 100 to 199 | > 630 | > 19500
